Assay: xn = mol fraction of the nth substance listed
Conditions: 101 kPa, Liquid; for speed of sound: Sing-around technique in a fixed-path interferometer; for mass density: Vibrating tube method

CCCCCC [hexane] + CCC(C)Cl
x1 = 1
Conditions | mass density [kg/m3] | speed of sound [m/s]
283.15 K | 668.609 | 1145.1
298.15 K | 654.96 | 1077
313.15 K | 641.39 | 1009.9

CCCCCl [1-chlorobutane] + CCCCCC
Conditions | mass density, 283.15 K [kg/m3] | mass density, 298.15 K [kg/m3] | mass density, 313.15 K [kg/m3] | speed of sound, 283.15 K [m/s] | speed of sound, 298.15 K [m/s] | speed of sound, 313.15 K [m/s]
x2 = 0 | 897.339 | 880.785 | 863.882 | 1180.1 | 1118.2 | 1056.9
x2 = 0.0508 | 882.878 | 866.478 | 849.768 | 1176 | 1113.8 | 1052.2
x2 = 0.0992 | 869.441 | 853.196 | 836.65 | 1172.3 | 1109.7 | 1047.9
x2 = 0.1972 | 843.152 | 827.205 | 810.995 | 1165.6 | 1102.4 | 1040
x2 = 0.2966 | 817.766 | 802.115 | 786.257 | 1159.7 | 1095.9 | 1032.8
x2 = 0.3976 | 793.168 | 777.821 | 762.288 | 1154.6 | 1090.2 | 1026.5
x2 = 0.5009 | 769.237 | 754.195 | 739.001 | 1150.5 | 1085.6 | 1021.2
x2 = 0.6006 | 747.205 | 732.45 | 717.601 | 1147.4 | 1081.8 | 1016.9
x2 = 0.6982 | 726.617 | 712.126 | 697.583 | 1145.2 | 1079.1 | 1013.6
x2 = 0.7972 | 706.669 | 692.488 | 678.241 | 1143.9 | 1077.2 | 1011.2
x2 = 0.8979 | 687.33 | 673.439 | 659.508 | 1143.7 | 1076.4 | 1009.8
x2 = 0.9472 | 678.205 | 664.449 | 650.666 | 1144.1 | 1076.4 | 1009.7

CCC(C)Cl (stereo not drawn) [2-chlorobutane] + CCCCCC
Conditions | mass density, 283.15 K [kg/m3] | mass density, 298.15 K [kg/m3] | mass density, 313.15 K [kg/m3] | speed of sound, 283.15 K [m/s] | speed of sound, 298.15 K [m/s] | speed of sound, 313.15 K [m/s]
x2 = 0 | 884.34 | 867.474 | 850.266 | 1127.7 | 1066.2 | 1005.3
x2 = 0.0509 | 870.642 | 853.976 | 836.967 | 1126.4 | 1064.5 | 1003.3
x2 = 0.1002 | 857.772 | 841.229 | 824.438 | 1125.2 | 1063.1 | 1001.6
x2 = 0.1802 | 837.449 | 821.198 | 804.693 | 1124 | 1061.4 | 999.26
x2 = 0.3029 | 807.817 | 791.981 | 775.929 | 1123.1 | 1059.7 | 996.75
x2 = 0.4045 | 784.524 | 769.021 | 753.339 | 1123.4 | 1059.3 | 995.71
x2 = 0.4991 | 763.875 | 748.682 | 733.339 | 1124.5 | 1059.8 | 995.56
x2 = 0.5974 | 743.353 | 728.495 | 713.496 | 1126.5 | 1061.1 | 996.3
x2 = 0.6992 | 723.059 | 708.519 | 693.898 | 1129.5 | 1063.4 | 998
x2 = 0.7996 | 704.031 | 689.807 | 675.523 | 1133.3 | 1066.8 | 1000.8
x2 = 0.8981 | 686.218 | 672.305 | 658.349 | 1138.3 | 1071.1 | 1004.5
x2 = 0.9477 | 677.555 | 663.793 | 650.005 | 1141.4 | 1073.7 | 1006.9

CC(C)(C)Cl [2-chloro-2-methylpropane] + CCCCCCC
Conditions | mass density, 283.15 K [kg/m3] | mass density, 298.15 K [kg/m3] | mass density, 313.15 K [kg/m3] | speed of sound, 283.15 K [m/s] | speed of sound, 298.15 K [m/s] | speed of sound, 313.15 K [m/s]
x2 = 0 | 855.249 | 837.096 | 818.536 | 1046.9 | 983.25 | 919.41
x2 = 0.0519 | 843.365 | 825.671 | 807.559 | 1053 | 989.06 | 925.62
x2 = 0.1021 | 832.352 | 815.034 | 797.321 | 1059 | 995.16 | 931.82
x2 = 0.2015 | 811.803 | 795.208 | 778.248 | 1071.6 | 1007.9 | 944.63
x2 = 0.3006 | 792.846 | 776.886 | 760.618 | 1085.1 | 1021.5 | 957.98
x2 = 0.3997 | 775.339 | 759.908 | 744.157 | 1099.1 | 1035.7 | 972.04
x2 = 0.5027 | 758.514 | 743.587 | 728.394 | 1114.5 | 1051.1 | 987.29
x2 = 0.6011 | 743.606 | 729.156 | 714.479 | 1129.7 | 1066 | 1002.2
x2 = 0.7014 | 729.346 | 715.392 | 701.195 | 1145.5 | 1081.5 | 1017.8
x2 = 0.8007 | 716.295 | 702.832 | 689.124 | 1161.5 | 1097.1 | 1033.3
x2 = 0.8966 | 704.437 | 691.409 | 678.136 | 1177.4 | 1113.2 | 1049.5
x2 = 0.9518 | 697.935 | 685.122 | 672.064 | 1187 | 1122.5 | 1058.7

CCCCCCC [heptane] + CCCCCl
x1 = 1
Conditions | mass density [kg/m3]
283.15 K | 692.422
298.15 K | 679.783
313.15 K | 666.908

CCCCCl [1-chlorobutane] + CCCCCCC
mass density [kg/m3]
Conditions | 283.15 K | 298.15 K | 313.15 K
x2 = 0 | 897.339 | 880.785 | 863.882
x2 = 0.0508 | 882.735 | 866.442 | 849.802
x2 = 0.1017 | 868.636 | 852.592 | 836.205
x2 = 0.1981 | 843.549 | 827.947 | 812.014
x2 = 0.2989 | 819.278 | 804.127 | 788.662
x2 = 0.4022 | 796.314 | 781.594 | 766.57
x2 = 0.4998 | 776.207 | 761.86 | 747.232
x2 = 0.6008 | 756.852 | 742.869 | 728.632
x2 = 0.6989 | 739.334 | 725.722 | 711.853
x2 = 0.7985 | 722.761 | 709.483 | 695.957
x2 = 0.898 | 707.234 | 694.282 | 681.084
x2 = 0.9498 | 699.591 | 686.802 | 673.764

CCCCCC [hexane] + CCCCCl
x1 = 1
Conditions | mass density [kg/m3] | speed of sound [m/s]
283.15 K | 668.609 | 1145.1
298.15 K | 654.96 | 1077
313.15 K | 641.39 | 1009.9

CCCCCC [hexane] + CC(C)CCl
x1 = 1
Conditions | mass density [kg/m3] | speed of sound [m/s]
283.15 K | 668.609 | 1145.1
298.15 K | 654.96 | 1077
313.15 K | 641.39 | 1009.9

CC(C)CCl [1-chloro-2-methylpropane] + CCCCCC
Conditions | mass density, 283.15 K [kg/m3] | mass density, 298.15 K [kg/m3] | mass density, 313.15 K [kg/m3] | speed of sound, 283.15 K [m/s] | speed of sound, 298.15 K [m/s] | speed of sound, 313.15 K [m/s]
x2 = 0 | 888.845 | 871.533 | 853.902 | 1141.7 | 1078.6 | 1016.3
x2 = 0.0512 | 874.715 | 857.627 | 840.236 | 1139.3 | 1075.9 | 1013.4
x2 = 0.0999 | 861.62 | 844.732 | 827.564 | 1137.3 | 1073.7 | 1011
x2 = 0.2003 | 835.641 | 819.166 | 802.454 | 1134 | 1070 | 1006.9
x2 = 0.2993 | 811.259 | 795.172 | 778.889 | 1131.9 | 1067.5 | 1003.9
x2 = 0.4005 | 787.516 | 771.817 | 755.943 | 1130.6 | 1065.8 | 1001.8
x2 = 0.4977 | 765.822 | 750.487 | 735.001 | 1130.5 | 1065.2 | 1000.6
x2 = 0.598 | 744.502 | 729.51 | 714.446 | 1131.3 | 1065.5 | 1000.4
x2 = 0.6993 | 723.963 | 709.35 | 694.648 | 1133 | 1066.7 | 1001.1
x2 = 0.799 | 704.731 | 690.452 | 676.142 | 1135.8 | 1069 | 1002.8
x2 = 0.8967 | 686.793 | 672.832 | 658.858 | 1139.6 | 1072.2 | 1005.6
x2 = 0.9472 | 677.811 | 664.036 | 650.244 | 1142 | 1074.3 | 1007.5

CCCCCCC [heptane] + CC(C)(C)Cl
x1 = 1
Conditions | mass density [kg/m3] | speed of sound [m/s]
283.15 K | 692.422 | 1195.7
298.15 K | 679.783 | 1131
313.15 K | 666.908 | 1067.2

CCCCCC [hexane] + CC(C)(C)Cl
x1 = 1
Conditions | mass density [kg/m3] | speed of sound [m/s]
283.15 K | 668.609 | 1145.1
298.15 K | 654.96 | 1077
313.15 K | 641.39 | 1009.9

CCCCCCC [heptane] + CC(C)CCl
x1 = 1
Conditions | mass density [kg/m3] | speed of sound [m/s]
283.15 K | 692.422 | 1195.7
298.15 K | 679.783 | 1131
313.15 K | 666.908 | 1067.2

CCC(C)Cl (stereo not drawn) [2-chlorobutane] + CCCCCCC
mass density [kg/m3]
Conditions | 283.15 K | 298.15 K | 313.15 K
x2 = 0 | 884.34 | 867.474 | 850.266
x2 = 0.0506 | 870.755 | 854.132 | 837.236
x2 = 0.0989 | 858.319 | 841.994 | 825.335
x2 = 0.2012 | 833.412 | 817.61 | 801.474
x2 = 0.3016 | 810.786 | 795.463 | 779.843
x2 = 0.3997 | 790.254 | 775.401 | 760.214
x2 = 0.4984 | 771.15 | 756.698 | 741.962
x2 = 0.5994 | 752.976 | 738.95 | 724.63
x2 = 0.6994 | 736.272 | 722.581 | 708.679
x2 = 0.7996 | 720.631 | 707.328 | 693.773
x2 = 0.9006 | 705.927 | 692.97 | 679.768
x2 = 0.9503 | 699.08 | 686.282 | 673.245

CCCCCCC [heptane] + CCC(C)Cl
Conditions | mass density, 283.15 K [kg/m3] | mass density, 298.15 K [kg/m3] | mass density, 313.15 K [kg/m3] | speed of sound, 313.15 K [m/s]
x1 = 1 | 692.422 | 679.783 | 666.908 | –
x2 = 0 | – | – | – | 1005.3

Source: the NIST ThermoML archive (doi:10.1016/j.jct.2010.06.008)
